Data set [1] is described as follows: MTT: Cell Damaging and Protecting Effect Test. The class given is cell-based, rabbit (male Japanese White). Conditions: rabbit, gastric corpus mucosa cells, final concentration 10^-4 M, smaller value is better, read-out: MTT: cell damaging rate. The method in brief: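 Primary gastric corpus mucosal cells from male Japanese White rabbit, enzymatically dispersed and cultured 3 days to confluence. Compound at final 10^-4 M added with MTT for 4 h at 37 °C; formazan read at OD 570–630. Cell damaging rate (%) calculated against control absorbance.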

Data set [2] concerns Helicobacter pyroli (HP NCTC 11637). The data set is described as follows: AHP: Antibacterial Activity Test Against Helicobacter pyroli (agar dilution). The class given is cell-based, Helicobacter pyroli NCTC 11637. On the procedure:
AHP: Antibacterial Activity Test Against Helicobacter pyroli The minimum inhibitory concentration (MIC) against Helicobacter pyroli (microacrophilic gram-negative bacterium which is supposed to deeply involve in pathogenesis, relapse, and recrudescence of ulcer, referred to as "HP" in the following) is measured so as to find out compounds which have antibacterial activity against Helicobacter pyroli. MICs were determined by the agar dilution method. The stock culture (-80° C.) of HP NCTC 11637 was thawed and cultured on tripticase soy agar supplemented with 5% sheep blood at 37° C. in an atmosphere of 5% O2, 10% CO2, and 85% N2. Grown colonies were transferred to the same plate and precultured for 3 days under the same condition. […] An appropriate amount of the colony grown on the plate by preculturing was suspended in Mueller Hinton broth till turbidness was recognizable by naked eyes, thereby yielding a bacterial suspension concentrate containing about 10^7 cfu/ml. […] 10 μl of the bacterial suspension for inoculation (about 10^3 cfu) was dropped by dispenser onto an MIC plate for inoculation and cultured for 7 days under the same condition as that of preculture. Thereafter, it was judged whether there had been bacteria growth or not. […] As the result of the comparison of these plates, when the number of the colony on the plate containing the sample compound was less than 90% with respect to that on the control plate, it was represented by "+". Contrary to this, when there was 90% or more, it was represented by "-".

Regarding `CCN(CC)CCNC(=O)c1cc(OCC=C(C)C)cc(OCC=C(C)C)c1` [Example 14], in data set [1], the cytotoxicity at 4 h, 100 µM came to 43%. The same measure, in the same setting: the value for `CCN(CC)CCNC(=O)c1cc(OC/C=C(\C)CCC=C(C)C)ccc1OC/C=C(\C)CCC=C(C)C` [Example 16] was 40%. The compound `CC(C)=CCC/C(C)=C/COc1ccc(OC/C=C(\C)CCC=C(C)C)c(C(=O)NCCN(C(C)C)C(C)C)c1` [Example 17] registered an MIC in data set [2] (Helicobacter, NCTC11637, 168 h, agar dilution, HP NCTC 11637, 7 days) of less than 3.13 µg/mL. Also, the cytotoxicity at 4 h, 100 µM in data set [1] was determined as 27%.

For `CCN(CC=C(C)C)c1ccc(C(=O)NCCN(C(C)C)C(C)C)cc1` [Example 28], the “AHP: growth class where MIC was 100 μg/ml or more” value in data set [2] (MIC 100 μg/ml or more, colony number vs control plate, 250 mM solution of sample compound) is “+ (the number of the colony on the plate containing the sample compound was less than 90% with respect to that on the control plate)”. In addition, in data set [1], the cytotoxicity at 4 h, 100 µM came to 16%. Turning to `CCN(CC)CCNC(=O)c1cc(OC)c(OC/C=C(\C)CCC=C(C)C)c(OC)c1` [Example 37], the cytotoxicity at 4 h, 100 µM in data set [1] was found to be 39%. Still for that read-out and setting: the value for `CCN(CC)CCNC(=O)c1cc(OC)c(OC/C=C(/C)CCC=C(C)C)c(OC)c1` [Example 38] was 30%; that for `COc1cc(C(=O)NCCN(C)C)cc(OC/C=C(\C)CCC=C(C)C)c1OC` [Example 42] was 17%.

Values taken from patent US6001880A, “Alkylenediamine derivative, anti-ulcer drug, and antibacterial drug” (Shiseido Co., Ltd., priority 1997, dated 1999).
